# Measurements reported in patent US20060052435A1, “Selective dopamin d3 receptor agonists for the treatment of sexual dysfunction” (priority 2001, published 2006).
# Experiments:
# New Zealand rabbits = test: male and female anaesthetised rabbit, pelvic nerve stimulation; type: in vivo
# Experimental: 1.1.1 Male and Female Anaesthetised Rabbit Methodology
# Male and female New Zealand rabbits (˜2.5 kg) were pre-medicated with a combination of Medetomidine (Domitor®) 0.5 ml/kg i.m., and Ketamine (Vetalar®) 0.25 ml/kg i.m. whilst maintaining oxygen intake via a face mask. The rabbits were tracheotomised using a Portex™ uncuffed endotracheal tube 3 ID., connected to ventilator and maintained at a ventilation rate of 30-40 breaths per minute, with an approximate tidal volume of 18-20 ml, and a maximum airway pressure of 10 cm H2O. Anaesthesia was then switched to Isoflurane and ventilation continued with O2 at 2 l/min. The right marginal ear vein was cannulated using a 23 G or 24 G catheter, and Lactated Ringer solution perfused at 0.5 ml/min. The rabbit was maintained at 3% Isoflurane during invasive surgery, dropping to 2% for maintenance anaesthesia. The left jugular vein was exposed, isolated and then cannulated with a PVC catheter (17 G) for the infusion of drugs and compounds.
# The left groin area of the rabbit was shaved and a vertical incision was made approximately 5 cm in length along the thigh. The femoral vein and artery were exposed, isolated and then cannulated with a PVC catheter (17 G) for the infusion of drugs and compounds. Cannulation was repeated for the femoral artery, inserting the catheter to a depth of 10 cm to ensure that the catheter reached the abdominal aorta. This arterial catheter was linked to a Gould system to record blood pressure. Samples for blood gas analysis were also taken via the arterial catheter. Systolic and diastolic pressures were measured, and the mean arterial pressure calculated using the formula (diastolic×2+systolic)÷3. Heart rate was measured via the pulse oxymeter and Po-ne-mah data acquisition software system (Ponemah Physiology Platform, Gould Instrument Systems, Inc.).
# A ventral midline incision was made into the abdominal cavity. The incision was about 5 cm in length just above the pubis. The fat and muscle was bluntly dissected away to reveal the hypogastric nerve which runs down the body cavity. It was essential to keep close to the side curve of the pubis wall in order to avoid damaging the femoral vein and artery which lie above the pubis. The sciatic and pelvic nerves lie deeper and were located after further dissection on the dorsal side of the rabbit. Once the sciatic nerve is identified, the pelvic nerve was easily located. The term pelvic nerve is loosely applied; anatomy books on the subject fail to identify the nerves in sufficient detail. However, stimulation of the nerve causes an increase in vaginal and clitoral blood flow in females and in intracavernosal pressure and cavernosal blood flow in males, and innervation of the pelvic region. […]
# telemetry rats = test: rat telemetry model of erection (intracavernosal pressure); type: in vivo
# Experimental: Erectile responses were recorded by measuring intracavernosal pressure and/or clitoral/vaginal blood flow using surgically implanted telemetric device. The specific details of the surgical procedures, data acquisition and analysis can be found in detail in Bernabe J, Rampin O, Sachs B D, Giuliano F. Intracavernous pressure during erection in rats: an integrative approach based on telemetric recording. Am. J. Physiol.
# [1] = biological target: human dopamine D2 long receptor (Homo sapiens, UniProt P14416)
# Sequence of human dopamine D2 long receptor (P14416 whole entry): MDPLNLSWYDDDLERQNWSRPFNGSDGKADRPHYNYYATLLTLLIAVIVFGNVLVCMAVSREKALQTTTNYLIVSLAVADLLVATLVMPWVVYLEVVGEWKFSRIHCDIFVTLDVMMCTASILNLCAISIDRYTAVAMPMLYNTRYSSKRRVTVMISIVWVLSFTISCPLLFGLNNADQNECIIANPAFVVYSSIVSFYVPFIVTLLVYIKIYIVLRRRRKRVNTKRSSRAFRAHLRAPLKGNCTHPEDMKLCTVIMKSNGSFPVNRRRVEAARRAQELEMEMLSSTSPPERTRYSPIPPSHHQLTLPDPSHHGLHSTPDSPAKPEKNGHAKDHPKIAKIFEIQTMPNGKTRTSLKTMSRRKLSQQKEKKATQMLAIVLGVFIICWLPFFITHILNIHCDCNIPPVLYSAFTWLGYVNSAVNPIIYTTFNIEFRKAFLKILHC
# anaesthetised dog = test: haemodynamics in the anaesthetised dog; type: in vivo; details: for effect on mean blood pressure / effect on total vascular resistance (TVR; TPR) / effect on cardiac output and heart rate: s.c., hydrochloride; for effect on mean blood pressure / effect on total vascular resistance (TVR; TPR): doses up to 3000 μg/kg
# Text: Male beagles were anaesthetised with a mixture of chloralose and urethane, following pre-medication with piritramide. They were instrumented to measure arterial blood pressure, cardiac output, E.C.G., pudendal artery blood flow (PAF) and intra-cavernosal pressure (ICP). Other parameters such as heart rate and vascular resistance were derived from the primary signals. Following a period of equilibration, a series of control readings were taken and the effects of pelvic nerve stimulation at 4 and 8 Hz, on ICP and PAF were measured. Compounds were administered subcutaneously in the dorsal neck region via an implanted catheter, in the dose range of 0.3-3000 μg(base)/kg. Following each dose, parameters were measured at fixed intervals for 30 min.
# Results were analysed as percent change from the final control values for each dog and mean values for three dogs were used.
# [2] = at 3000 μg/kg, haemodynamic study
smiles,measurement,setting,value
"CCCN1CCO[C@H](c2cccc(O)c2)C1.Cl [Example 8, R-(−)-3-(4-Propylmorpholin-2-yl)phenol hydrochloride]",penile intracavernosal pressure and cavernosal blood flow in male rabbits,New Zealand rabbits,beneficially enhanced
same,vaginal and clitoral blood flow in female rabbits,New Zealand rabbits,beneficially enhanced
same,erections/10 minutes in the telemetry rat,telemetry rats; 10 μg/kg s.c.,2.25±0.25 erections/10 minutes
same,free plasma concentration at which prosexual effects were observed,"telemetry rats; rat telemetry model, FIG. 1",circa 1 nM
same,EC50,[1],4.97 µM
same,free plasma concentration of the corresponding samples,anaesthetised dog; [2],2700 nM
same,free plasma concentration relative to the D3 EC50,anaesthetised dog; [2],approximately 270 fold
same,Geometric mean ED30 (fall in TPR),"anaesthetised dog; dog, in vivo",No effect
same,effect on mean blood pressure,anaesthetised dog,No significant effect
same,effect on total vascular resistance (TVR; TPR),anaesthetised dog,No significant effect
same,effect on mean blood pressure,anaesthetised dog; listed as selective D3 agonist,no significant effects
same,effect on total vascular resistance (TVR; TPR),anaesthetised dog; listed as selective D3 agonist,no significant effects
same,effect on cardiac output and heart rate,anaesthetised dog,no significant effect
same,effect on cardiac output and heart rate,anaesthetised dog; listed as selective D3 agonist,no significant effects
